Measured values published in patent US4375478A, “Aminobenzoic acid derivatives” (Abbott Laboratories, priority 1982, dated 1983).

Tests used:
[1] = system: acyl-coenzyme A:cholesterol acyl transferase (ACAT); conditions: 1.0×10^-4 M; cited from earlier work
[2] = system: acyl-coenzyme A:cholesterol acyl transferase (ACAT); assay: Acyl-coenzyme A:cholesterol acyl transferase (ACAT) assay in vitro, liver microsomal protein, cholesterol oleate formation; assay type: biochemical; conditions: for ACAT inhibition: 1.0×10^-4 M; for Cholesterol Oleate CPM + S.D. / Cholesterol Oleate Inhibition Percent: 1.0 × 10^-4 M, Ethanol
Method: Test Compound (final concentration=1.0×10^-4 M) and 120 mcg of liver microsomal protein were preincubated for 5 minutes at 37° C. in 0.1 M phosphate buffer, pH 7.4, containing 6.0×10^-5 M bovine serum albumin and 0.002 M dithiothreitol (final volume=0.189 ml). Oleoyl-1-^14 C-coenzyme A, dissolved in buffer, was added in a volume of 0.011 ml so that the final concentration was 6.0×10^-5 M at a specific activity of 10.8 mCi/mmol (0.11 u Ci/tube). After incubation at 37° C. for 10 minutes, the reaction was stopped with the addition of 4.0 ml of chloroform:methanol at a ratio of 2:1 (C-M). The mixture was shaken after the addition of 0.84 ml of water, and the organic layer was evaporated to dryness. The aqueous phase was extracted again with 4.0 ml of C-M and the organic layer added to the dried residue of the first extractant. After evaporation, the residue was taken up in 0.040 ml of toluene:chloroform (4:1) and 0.020 ml were spotted on a Silica Gel-G TLC plate, 250 u thickness.

[3] = system: gerbils; assay: Plasma lipoprotein effects in gerbils; assay type: in vivo, gerbil; conditions: for HDL-C, Before Test / LDL-C plus VLDL-C, Before Test / Total Cholesterol, Before Test / HDL-C, After Test / LDL-C plus VLDL-C, After Test / Total Cholesterol, After Test / HDL-C, Percent Change / LDL-C plus VLDL-C, Percent Change / Total Cholesterol, Percent Change: gerbil plasma; for HDL-C, Before Test / LDL-C plus VLDL-C, Before Test / Total Cholesterol, Before Test: baseline before dosing; for HDL-C, Percent Change / LDL-C plus VLDL-C, Percent Change / Total Cholesterol, Percent Change: p 0.05
Method: Test compounds were suspended in 0.1% methylcellulose in isotonic saline at a concentration such that the desired dose was given in a volume of 4.0 ml/kg.
On the day before initiation of the experiment and on the day before the last dose, food was removed from the gerbils in the early evening, and at 9 a.m. the next day the animals were bled by heart puncture (0.5 ml) after light ether anesthesia; the animals were dosed approximately 2 hours after bleeding on Day 0 and 2 hours before bleeding on the last dosing day. The blood sample was mixed with a solution of EDTA, 50 mg/ml at pH 7.4, so that the final concentration was 1.5 mg/ml. After swirling, the contents were centrifuged at 1500×g for 10 minutes at 5° C. The plasma was removed from the packed cells and a portion was analyzed for cholesterol utilizing the ABA-100 and A-GENT cholesterol reagent. To 0.100 ml of another portion of plasma was added 0.010 ml of Mg^+2 -phosphotungstate reagent (prepared daily by adding one part of MgCl2, 1.5 M, and 4 parts of sodium phosphotungstate, 4%, adjusted to pH 7.4 with 1.0 N NaOH. The mixture was vortexed and allowed to remain at room temperature for 5 minutes. The sample was centrifuged at 100,000×g for 5 minutes and an aliquot of supernatant analyzed for HDL cholesterol (HDL-C). The difference between total plasma cholesterol and HDL-C (after correction for dilution) was utilized as an estimate of low density plus very low density lipoprotein cholesterol (LDL-C plus VLDL-C). Animals were treated for 5 days in the first experiment and for 4 days in the second.
Controls and test compounds were evaluated in groups of 12 gerbils. The significance of the changes in the plasma parameters was evaluated by a paired t-test; tests of hypothesis were performed at the 0.05 significance level.

[4] = Solubility in the ACAT incubation medium with ethanol; assay type: physicochemical; conditions: 1% alcohol, 1.0×10^-4 M
Method: The plate was developed in a hexane:diethyl ether:acetic acid solution (90:10:1) and the cholesterol oleate area was visualized with iodine vapor. The cholesterol oleate spot (Rf=0.70) was scraped from the plate and counted in Packard Scinto Liquid. Samples were run in triplicate, and percent inhibition was calculated utilizing controls with sample solvent only. Compounds were dissolved in ethanol, and the final concentration in the incubation medium was 1.0% in the first experiment and 2.5% in the second.

[5] = 1% alcohol (first value of the pair)
[6] = 2.5% alcohol (second value of the pair)
[7] = 100 mg/kg, five days, ± standard deviation
[8] = 100 mg/kg, five days, significant difference
[9] = 123 mg/kg, four days, significant difference
[10] = 100 mg/kg, four days, no significant difference

## CC(=O)[C@H]1CC[C@H]2[C@@H]3CCC4=CC(=O)CC[C@]4(C)[C@H]3CC[C@]12C [Progesterone]
[1]
  ACAT inhibition, literature value of the reference standard: 60%
[2]; [5]
  ACAT inhibition: 84%
[2]; [6]
  ACAT inhibition: 74%
[2]; 1%
  Cholesterol Oleate CPM + S.D.: 891 ± 555 CPM
  Cholesterol Oleate Inhibition Percent: 65%
[2]; 2.5%
  Cholesterol Oleate CPM + S.D.: 453 ± 61 CPM
  Cholesterol Oleate Inhibition Percent: 66%
[2]; at both alcohol concentrations (1% and 2.5%)
  ACAT inhibition: 65-66%

## CCCCCCCCCCCCCCCCNc1c(Cl)cc(C(=O)O)cc1Cl [Compound B, Sodium (3,5-dichloro-4-hexadecylamino)benzoate]
[3]; [7]
  HDL-C, Before Test: 51.7 ± 11.1 mg/dL
  LDL-C plus VLDL-C, Before Test: 44.8 ± 7.1 mg/dL
  Total Cholesterol, Before Test: 96.6 ± 12.9 mg/dL
  HDL-C, After Test: 42.0 ± 7.0 mg/dL
  LDL-C plus VLDL-C, After Test: 35.8 ± 6.0 mg/dL
  Total Cholesterol, After Test: 77.7 ± 12.3 mg/dL
[3]; [8]
  HDL-C, Percent Change: -19%
  LDL-C plus VLDL-C, Percent Change: -20%
  Total Cholesterol, Percent Change: -20%
[3]; 123 mg/kg, four days
  HDL-C, After Test: 48.8 ± 9.7 mg/dL
  LDL-C plus VLDL-C, After Test: 32.1 ± 8.8 mg/dL
  Total Cholesterol, After Test: 81.0 ± 10.2 mg/dL
  HDL-C, Before Test: 53.7 ± 9.9 mg/dL
  LDL-C plus VLDL-C, Before Test: 42.9 ± 16.8 mg/dL
  Total Cholesterol, Before Test: 96.6 ± 20.3 mg/dL
[3]; [9]
  HDL-C, Percent Change: -9%
  LDL-C plus VLDL-C, Percent Change: -25%
  Total Cholesterol, Percent Change: -10%
[3]; gerbils, groups of 12, four days, 123 mg/kg
  animal deaths in the group: One animal died

## CCCCCCCCCCCCCCCCNc1ccc(C(=O)[O-])cc1.[Na+]
[3]; 100 mg/kg, four days
  HDL-C, After Test: 45.1 ± 3.8 mg/dL
  LDL-C plus VLDL-C, After Test: 44.9 ± 10.6 mg/dL
  Total Cholesterol, After Test: 90.0 ± 11.7 mg/dL
  HDL-C, Before Test: 47.1 ± 13.4 mg/dL
  LDL-C plus VLDL-C, Before Test: 45.9 ± 15.3 mg/dL
  Total Cholesterol, Before Test: 93.0 ± 13.3 mg/dL
[3]; [10]
  HDL-C, Percent Change: -4%
  LDL-C plus VLDL-C, Percent Change: -2%
  Total Cholesterol, Percent Change: -3%
[4]
  solubility in incubation medium: not completely soluble
[2]; [5]
  ACAT inhibition: 26%
[2]; [6]
  ACAT inhibition: 45%
[2]; 1%
  Cholesterol Oleate CPM + S.D.: 1917 ± 33 CPM
  Cholesterol Oleate Inhibition Percent: 26%
[2]; 2.5%
  Cholesterol Oleate CPM + S.D.: 735 ± 187 CPM
  Cholesterol Oleate Inhibition Percent: 45%
